Measured values as given in PubChem BioAssay AID330 (DTP/NCI, 2004).
“And” between values parts separate entries of the source, which are not always exact repeats. Identical values can stand only once. Toxic doses and inconclusive results are not listed. The calls were made as follows: active = survival T/C of 150% or more; inactive = T/C below 125% in these data.

System: P388 leukemia ip, CD2F1 mice, survival T/C
Experiment: NCI In Vivo Anticancer Drug Screen. Data for tumor model P388 Leukemia (intraperitoneal) in CD2F1 (CDF1) mice
Details: endpoint: median survival time, higher = longer survival
How it was run: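 Mice carrying the transplanted tumor received test compound or vehicle. Survival was recorded in each group, and the value is the treated-group measurement divided by that of the vehicle-treated control group.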

[1] = dose: 60.0 mg/kg/injection, schedule: Q01DX005 (ip), vehicle: saline with Tween-80
[2] = dose: 100.0 mg/kg/injection, schedule: Q04DX003 (ip), vehicle: Klucel (hydroxypropylcellulose) (HPC)
[3] = dose: 200.0 mg/kg/injection, schedule: Q04DX003 (ip), vehicle: Klucel (hydroxypropylcellulose) (HPC)
[4] = dose: 400.0 mg/kg/injection, schedule: Q04DX003 (ip), vehicle: Klucel (hydroxypropylcellulose) (HPC)
[5] = dose: 50.0 mg/kg/injection, schedule: Q01DX005 (ip), vehicle: Klucel (hydroxypropylcellulose) (HPC)
[6] = dose: 100.0 mg/kg/injection, schedule: Q01DX005 (ip), vehicle: Klucel (hydroxypropylcellulose) (HPC)
[7] = dose: 200.0 mg/kg/injection, schedule: Q01DX005 (ip), vehicle: Klucel (hydroxypropylcellulose) (HPC)
[8] = dose: 100.0 mg/kg/injection, schedule: Q01DX009 (ip), vehicle: saline with Tween-80
[9] = dose: 200.0 mg/kg/injection, schedule: Q01DX009 (ip), vehicle: saline with Tween-80
[10] = dose: 25.0 mg/kg/injection, schedule: Q01DX005 (ip), vehicle: saline with Tween-80
[11] = dose: 100.0 mg/kg/injection, schedule: Q01DX005 (ip), vehicle: saline with Tween-80
[12] = dose: 200.0 mg/kg/injection, schedule: Q01DX005 (ip), vehicle: saline with Tween-80
[13] = dose: 120.0 mg/kg/injection, schedule: Q01DX005 (ip), vehicle: saline with Tween-80
[14] = dose: 240.0 mg/kg/injection, schedule: Q01DX005 (ip), vehicle: saline with Tween-80
[15] = dose: 50.0 mg/kg/injection, schedule: Q01DX009 (ip), vehicle: saline with Tween-80

Measured: T/C

COc1cc([N+](=O)[O-])c(OC)c2c(=O)[nH]c(=O)[nH]c12
inactive: dose: 6.25 mg/kg/injection, schedule: Q01DX005 (ip), vehicle: Klucel (hydroxypropylcellulose) (HPC) 98 % of control | dose: 12.5 mg/kg/injection, schedule: Q01DX005 (ip), vehicle: Klucel (hydroxypropylcellulose) (HPC) 90 % of control

N#Cc1c(=O)[nH]c(=O)n2c1[nH]c1ccccc12
inactive: dose: 15.0 mg/kg/injection, schedule: Q01DX005 (ip), vehicle: saline with Tween-80 102 % of control | dose: 30.0 mg/kg/injection, schedule: Q01DX005 (ip), vehicle: saline with Tween-80 104 % of control | [1] 105 % of control and 88 % of control

O=C(O)C1CC(=O)N(Cc2ccccc2)C1 (stereo unspecified)
inactive: dose: 100.0 mg/kg/injection, schedule: Q04DX003 (ip), vehicle: saline with Tween-80 95 % of control | dose: 200.0 mg/kg/injection, schedule: Q04DX003 (ip), vehicle: saline with Tween-80 100 % of control | dose: 400.0 mg/kg/injection, schedule: Q04DX003 (ip), vehicle: saline with Tween-80 100 % of control

CC1(C)c2ccccc2-c2nc3ccccc3nc2C1O (stereo unspecified)
inactive: [2] 110 % of control | [3] 99 % of control | [4] 112 % of control

Nc1n[nH]c2ccccc12
inactive: [5] 104 % of control and 107 % of control | [6] 105 % of control and 107 % of control | [7] 117 % of control

CC1CC[N-]C(CCC2CC(C)CC[N-]2)C1.CC1CC[N-]C(CCC2CC(C)CC[N-]2)C1.[Ni+2].[O-][Cl+3]([O-])([O-])O (stereo unspecified)
inactive: dose: 25.0 mg/kg/injection, schedule: Q01DX001 (ip), vehicle: saline 99 % of control | dose: 50.0 mg/kg/injection, schedule: Q01DX001 (ip), vehicle: saline 93 % of control | dose: 100.0 mg/kg/injection, schedule: Q01DX001 (ip), vehicle: saline 108 % of control and 96 % of control

CCC(=O)Nc1nnc(SCCCCCCCCCCCCSc2nnc(NC(=O)CC)s2)s1
inactive: [5] 96 % of control | [6] 88 % of control | [7] 87 % of control

Cc1ccc(N)c(N)c1
inactive: [8] 99 % of control | dose: 100.0 mg/kg/injection, schedule: Q01DX009 (ip), vehicle: saline 107 % of control | [9] 109 % of control | dose: 400.0 mg/kg/injection, schedule: Q01DX009 (ip), vehicle: saline with Tween-80 123 % of control

Cc1nc2ncn(-c3ccccc3)c2c(=O)n1CC(C)C
inactive: [5] 100 % of control | [6] 101 % of control | [7] 102 % of control

Cn1c2ccccc2c2[nH]c3ccccc3c(=O)c21
inactive: [5] 108 % of control and 97 % of control | [6] 95 % of control | [7] 90 % of control and 96 % of control

COc1c(-c2ccc3c(c2)OCO3)oc2cc(O)cc(O)c2c1=O
inactive: dose: 6.25 mg/kg/injection, schedule: Q01DX005 (ip), vehicle: saline with Tween-80 100 % of control | dose: 12.5 mg/kg/injection, schedule: Q01DX005 (ip), vehicle: saline with Tween-80 100 % of control | [10] 104 % of control | [11] 89 % of control | [12] 105 % of control

CC(=O)N1OCCc2ccccc21
inactive: [1] 100 % of control | [13] 98 % of control | [14] 98 % of control

COc1ccc(C(=O)N2C(=O)CCC2=O)cc1
inactive: dose: 50.0 mg/kg/injection, schedule: Q01DX009 (ip), vehicle: Klucel (hydroxypropylcellulose) (HPC) 109 % of control | dose: 100.0 mg/kg/injection, schedule: Q01DX009 (ip), vehicle: Klucel (hydroxypropylcellulose) (HPC) 115 % of control | [2] 113 % of control | [3] 113 % of control | [4] 114 % of control

CC12CCC(O)CC1CCC1C2CCC2(C)C(c3ccc(=O)oc3)CC3OC312 (stereo unspecified)
inactive: dose: 0.31 mg/kg/injection, schedule: Q01DX009 (ip), vehicle: saline with Tween-80 108 % of control | dose: 0.62 mg/kg/injection, schedule: Q01DX009 (ip), vehicle: saline with Tween-80 100 % of control | dose: 1.25 mg/kg/injection, schedule: Q01DX009 (ip), vehicle: saline with Tween-80 104 % of control | dose: 2.5 mg/kg/injection, schedule: Q01DX009 (ip), vehicle: saline with Tween-80 115 % of control | dose: 5.0 mg/kg/injection, schedule: Q01DX009 (ip), vehicle: saline with Tween-80 100 % of control and 87 % of control | dose: 10.0 mg/kg/injection, schedule: Q01DX009 (ip), vehicle: saline with Tween-80 87 % of control | dose: 20.0 mg/kg/injection, schedule: Q01DX009 (ip), vehicle: saline with Tween-80 88 % of control

COc1ccc(/C=N/Nc2nnc3c4ccccc4c4ccccc4c3n2)cc1
inactive: dose: 50.0 mg/kg/injection, schedule: Q04DX003 (ip), vehicle: saline 89 % of control | dose: 100.0 mg/kg/injection, schedule: Q04DX003 (ip), vehicle: saline 93 % of control | dose: 200.0 mg/kg/injection, schedule: Q04DX003 (ip), vehicle: saline 92 % of control

Cc1cnnc2c3ccccc3nn12
inactive: [5] 99 % of control | [6] 101 % of control | [7] 101 % of control

O=C1CCC(N2C(=O)CC3(CCCC3)C2=O)C(=O)N1c1ccc([N+](=O)[O-])cc1 (stereo unspecified)
inactive: [15] 106 % of control | [8] 109 % of control | [9] 99 % of control

CC(CCc1ccc2c(c1)c(=N)c1ccc(N)cc1n2O)CC(C)(C)C (stereo unspecified)
inactive: dose: 1.56 mg/kg/injection, schedule: Q04DX002 (ip), vehicle: distilled water + Tween-80 102 % of control and 96 % of control | dose: 3.12 mg/kg/injection, schedule: Q04DX002 (ip), vehicle: distilled water + Tween-80 106 % of control and 94 % of control | dose: 6.25 mg/kg/injection, schedule: Q04DX002 (ip), vehicle: distilled water + Tween-80 100 % of control and 120 % of control | dose: 12.5 mg/kg/injection, schedule: Q04DX002 (ip), vehicle: distilled water + Tween-80 102 % of control and 98 % of control (2×)

CC(=N/NC(=S)NCCN1CCCC1)/C(C)=N\NC(=S)NCCN1CCCC1
inactive: dose: 6.25 mg/kg/injection, schedule: Q04DX003 (ip), vehicle: saline with Tween-80 117 % of control | dose: 12.5 mg/kg/injection, schedule: Q04DX003 (ip), vehicle: saline with Tween-80 98 % of control | dose: 25.0 mg/kg/injection, schedule: Q04DX003 (ip), vehicle: saline with Tween-80 100 % of control

COc1cc([N+](=O)[O-])ccc1C(=O)Nc1c2ccccc2nc2ccccc12
inactive: [10] 95 % of control | dose: 50.0 mg/kg/injection, schedule: Q01DX005 (ip), vehicle: saline with Tween-80 107 % of control | [11] 92 % of control | [12] 92 % of control

C/C=C1/CNC2Cc3c([nH]c4ccccc34)C(c3ccc4c5c([nH]c4c3)C3CC4CC(CC)C3N(CC5)C4)CC1C2C(=O)OC (stereo unspecified)
inactive: dose: 2.5 mg/kg/injection, schedule: Q01DX009 (ip), vehicle: saline 106 % of control | dose: 5.0 mg/kg/injection, schedule: Q01DX009 (ip), vehicle: saline 100 % of control

Cc1nc([N+](=O)[O-])c(Sc2nncc(-c3ccccc3)n2)n1C
inactive: [5] 111 % of control | [6] 104 % of control

CC(C)(C)c1cc(C(C)(C)C)c(=O)oc(=O)c1
inactive: [5] 98 % of control | [6] 98 % of control

Cc1c2c(c(C)c3c1C(=O)c1cc4c(cc1C3=O)OCO4)OC(C)O2
inactive: [1] 89 % of control | [13] 89 % of control | [14] 91 % of control

CN(C)CCC1(C)OCCC2=C1Cc1ccccc12 (stereo unspecified)
inactive: [15] 91 % of control | [8] 99 % of control

CC1(C)C=C(NC(=O)N2CC2)C(C)(C)N1O
inactive: dose: 6.25 mg/kg/injection, schedule: Q01DX009 (ip), vehicle: saline with Tween-80 100 % of control | dose: 12.5 mg/kg/injection, schedule: Q01DX009 (ip), vehicle: saline with Tween-80 103 % of control | dose: 25.0 mg/kg/injection, schedule: Q01DX009 (ip), vehicle: saline with Tween-80 103 % of control | [15] 117 % of control

O=C(NC(CSSCC(NC(=O)OCc1ccccc1)C(=O)O)C(=O)O)OCc1ccccc1 (stereo unspecified)
inactive: dose: 100.0 mg/kg/injection, schedule: Q04DX003 (ip), vehicle: other 100 % of control | dose: 200.0 mg/kg/injection, schedule: Q04DX003 (ip), vehicle: other 100 % of control | dose: 400.0 mg/kg/injection, schedule: Q04DX003 (ip), vehicle: other 100 % of control

COc1ccc(/C=N/Nc2nnc3c4ccccc4c4ncccc4c3n2)cc1
inactive: dose: 100.0 mg/kg/injection, schedule: Q01DX001 (ip), vehicle: saline with Tween-80 88 % of control | dose: 200.0 mg/kg/injection, schedule: Q01DX001 (ip), vehicle: saline with Tween-80 95 % of control | dose: 400.0 mg/kg/injection, schedule: Q01DX001 (ip), vehicle: saline with Tween-80 106 % of control
